# According to patent US20230235289A1, “METHOD FOR FIBROBLAST REJUVENATION BY MECHANICAL REPROGRAMMING AND REDIFFERENTIATION” (Paul Scherrer Institut, priority 2020, published 2023):
# How the values were obtained:
# FC (3T3 clumps) [1] = experiment: Nuclear dynamics by time-lapse confocal microscopy of Hoechst 33342 stained nuclei; assay type: cell-based, mouse; conditions: TSA-treated FC compared to control FC
# Experimental: Nuclear dynamics were analyzed from the decorrelation of the nuclear images in time as described previously(37). Time-lapse live-imaging of nucleus stained with Hoechst 33342 (ThermoFisher Scientific) was done in confocal mode with time intervals of one minute for up to 32 minutes in PR, FC and FC+TSA conditions. One Pearson correlation coefficient (PCC) value was calculated from two lists of pixel intensity of the same nucleus captured in different time points with a certain time lag. For each cell, one PCC curve was drawn which connecting all PCCs (as y) with the increasing time lags (as x) as represented in dim color in FIG. 5A. The mean PCC curves for all cells in each condition, were drawn in bright color in FIG. 5A. The mean PCC curves in each condition were fitted by equation y=(1−α)+α exp(−t/τ)−η, where y refers to PCC value, t is time lags, fitting parameter α is drop rate, τ is time constant, η is noise.
# FC (3T3 clumps) [2] = experiment: H3K9ac immunofluorescence; assay type: cell-based, mouse; conditions: TSA-treated FC compared to untreated FC
# Experimental: (§1) Cells embedded in Collagen-I gel were fixed with 4% Paraformaldehyde (Sigma) in PBS buffer (pH 7.4) for 25 min, followed by washing with PBS+100 mM glycine buffer (5 min×3). Cells were permeabilized using 0.5% Triton (Sigma-Aldrich) in PBS for 20 min, followed by washing with PBS-glycine buffer (5 min×3). After that, cells were blocked with 10% goat serum (ThermoFisher Scientific) in IF wash buffer (PBS+0.2% Triton+0.2% tween 20) for 3 h at room temperature. Next, cells were incubated overnight with different primary antibodies diluted in blocking buffer, followed by washing with IF wash buffer (15 min×3). […] Cell nuclei were stained with NucBlue Live Ready Probes (Molecular Probes; Thermo Fisher Scientific) in PBS for 10 min at room temperature, and filamentous actin was labeled using phalloidin Alexa Fluor 488 or 568 (1:100; Molecular Probes; Thermo Fisher Scientific) for 45 min.
# (§2) Fluorescent images of 3D spheroids and cells embedded in 3D Collagen-I gel were acquired by using Nikon AIR laser scanning confocal microscope (Nikon Instruments Inc, Japan), at either 20× magnification (Plan Apo 20× ELWD, NA 0.8) or 63× magnification (1.25 NA oil objective) with identical acquisition settings. […] The sprouting length of each spheroid embedded in 3D collagen matrix was measured from the large field fluorescent micrograph of actin using AngioTools software.
# [3] = tested on: FC embedded in 3D collagen matrix (FCG); experiment: pMLC immunofluorescence of sprouted cells in 3D collagen matrix; assay type: cell-based, mouse
# Experimental: as §1, §2
# [4] = tested on: RF embedded in fibrillary collagen matrix; experiment: Collagen fibre remodeling/stiffening by matrix-embedded fibroblasts (immunostained collagen); assay type: cell-based, mouse; conditions: for collagen fiber stiffening: addition to spheroids sprouting in collagen matrix
# Description: In order to characterize these RF in vitro, one compared the gel contraction abilities of cells derived from PR spheroids or from FC, both of which were equally embedded in the 3D collagen matrix. […] Fibroblasts are known to exert mechanical forces on the extracellular matrix surrounding them. […] Both RF and FCG embedded in fibrillary collagen matrix were able to remodel collagen fibrils into thicker bundles (FIG. 3F).
# Cells embedded in Collagen-I gel were fixed with 4% Paraformaldehyde (Sigma) in PBS buffer (pH 7.4) for 25 min, followed by washing with PBS+100 mM glycine buffer (5 min×3). Cells were permeabilized using 0.5% Triton (Sigma-Aldrich) in PBS for 20 min, followed by washing with PBS-glycine buffer (5 min×3). After that, cells were blocked with 10% goat serum (ThermoFisher Scientific) in IF wash buffer (PBS+0.2% Triton+0.2% tween 20) for 3 h at room temperature. Next, cells were incubated overnight with different primary antibodies diluted in blocking buffer, followed by washing with IF wash buffer (15 min×3). Cells were then incubated with corresponding fluorescent-labeled secondary antibodies diluted in 5% goat serum in IF wash buffer for 3 h at room temperature. Cell nuclei were stained with NucBlue Live Ready Probes (Molecular Probes; Thermo Fisher Scientific) in PBS for 10 min at room temperature, and filamentous actin was labeled using phalloidin Alexa Fluor 488 or 568 (1:100; Molecular Probes; Thermo Fisher Scientific) for 45 min.
# Fluorescent images of 3D spheroids and cells embedded in 3D Collagen-I gel were acquired by using Nikon AIR laser scanning confocal microscope (Nikon Instruments Inc, Japan), at either 20× magnification (Plan Apo 20× ELWD, NA 0.8) or 63× magnification (1.25 NA oil objective) with identical acquisition settings. In the Z dimension, each spheroid and 3D Collagen-I gel was scanned up to a depth of 50 μm, with a step size of 1 to 5 μm. Confocal images of either 512×512 or 1024×1024 pixels were obtained with an XY optical resolution of 0.42 μm or 0.21 μm, respectively. Time lapse imaging was done in confocal mode for up to 60 min and 18 h with 60 s and 30 m time intervals, respectively. Bright-field images were acquired using the EVOS FL Cell Imaging System (Thermo Fisher Scientific). For gel contraction assay, images of collagen gel at different days of cell growth were acquired with a mobile camera at a fixed magnification. The fluorescence intensity was measured for each protein in its respective channel and the number of gH2Ax foci per nucleus was determined using custom-written code in Fiji (NI) MATLAB (Mathworks) and IMARIS8. The sprouting length of each spheroid embedded in 3D collagen matrix was measured from the large field fluorescent micrograph of actin using AngioTools software.
# [5] = tested on: 6 day-old spheroids of NIH3T3 mouse embryonic fibroblasts; experiment: Cell sprouting from partially reprogrammed spheroids in 3D collagen matrix (AngioTools); assay type: cell-based; conditions: addition to spheroids sprouting in collagen matrix
# Description: These 6 day-old spheroids were embedded in collagen gels and cultured for at least 2 days (FIG. 1A). Within few hours, cells originating from the spheroids progressively invaded the collagen matrix and migrated either individually as unicellular sprouts (single cells) or collectively as complex capillary-like structures (FIG. 1B). In addition to cell invasion, morphological modifications in the spheroid core itself were detected. While the spheroids initially appeared as a compact structure, subsequent cell migration induced spheroid expansion occurred and led to breaches in the spheroid core. […]
# as §2, with “The fluorescence intensity was measured for each protein in its respective channel and the number of gH2Ax foci per nucleus was determined using custom-written code in Fiji (NI) MATLAB (Mathworks) and IMARIS8. The” for “The”
compound,measurement,setting,value
"CC(/C=C/C(=O)NO)=C\[C@@H](C)C(=O)c1ccc(N(C)C)cc1 [TSA, Trichostatin A]",nuclear dynamics,FC (3T3 clumps) [1],increase in nuclear dynamics
same,H3K9ac levels,FC (3T3 clumps) [2],significant increase
same,level of pMLC,[3]; TSA-treated FCG compared to untreated FCG and RF,higher level
same,contractility upon exposure to ECM-related cues,[3]; fibroblasts treated with the HDAC inhibitor,increased contractility
C[C@@H](N)[C@H]1CC[C@H](C(=O)Nc2ccncc2)CC1 [Y-27632],remodeling of collagen fibrils around RF,[4]; 25 μM,very less or no remodeling
Cc1ccc2c(c1)C(=O)C1(O)CCN(c3ccccc3)C1=N2 (stereo not shown) [blebbistatin],average sprouting length,[5],significant reduction
same,collagen fiber stiffening,[4],drop
"C=C1[C@@H](C)[C@H]2[C@H](Cc3ccccc3)NC(=O)[C@]23[C@H](OC(C)=O)/C=C/[C@@](C)(O)C(=O)[C@@H](C)C/C=C/[C@H]3[C@@H]1O [cytoD, cytochalasin D]",average sprouting length,[5],significant reduction
same,remodeling of collagen fibrils around RF,[4]; 4 μM,very less or no remodeling
same,collagen fiber stiffening,[4],drop
